In patent US5431924A, “Anti-inflammatory composition derived from emu oil” (priority 1990, dated 1995):

System: male polyarthritic hooded rats
Test: Polyarthritis in male hooded rats: emu oil before and after uv exposure or benzoyl peroxide oxidation, with and without additives (Table 8)
Details: for anti-inflammatory activity in the rat polyarthritic model: emu oil after exposure to strong ultraviolet light, with or without additive, in words
[1] = Table 8, dose/kg 2 ml (EO), 20 mg (R.A., B-Carotene), 25 mg (Trolox-DE)

Structure (SMILES): CC(=O)OC/C=C(C)/C=C/C=C(C)/C=C/C1=C(C)CCCC1(C)C [R.A. in E-Pg, Retinyl acetate]
- Mean changes, Thickness Rear Paws, Days 12-16 [1]: 0.16 mm
- Mean changes, Thickness Rear Paws, Days 16-20 [1]: 0.30 mm
- Mean changes, Thickness Tail, Days 12-16 [1]: -0.12 mm
- Mean changes, Thickness Tail, Days 16-20 [1]: -0.10 mm
- Mean changes, Wt Chge, Days 12-16 [1]: -02 g
- Mean changes, Wt Chge, Days 16-20 [1]: +10 g
- anti-inflammatory activity in the rat polyarthritic model: anti-inflammatory activity could be restored to the oil

Structure (SMILES): CC1=C(/C=C/C(C)=C/C=C/C(C)=C/C=C/C=C(C)/C=C/C=C(C)/C=C/C2=C(C)CCCC2(C)C)C(C)(C)CCC1 [β-carotene]
- anti-inflammatory activity in the rat polyarthritic model: anti-inflammatory activity could be restored to the oil by the addition of retinyl acetate but not β-carotene
